This is an account of results in the supplement of paper PMC6331611.

The subject of assay [1] is Salmonella enterica serovar Typhimurium SL1344.
Assay [2] has the same test system. Briefly: intracellular MIC (10-fold luminescence reduction); higher = less potent. The conditions noted are these: RAW264.7 macrophages.
Another assay deals with RAW264.7. The assay can be described thus: cytotoxicity (LDH release relative to maximum lysis); higher = more toxic. The settings on record: 50 µM; 2 h. A general note: LDH leaks from cells whose membrane has failed.

≈ marks a conversion by molar mass, not a printed value. Where a name gives a salt, the structure may show the parent alone. Bounds are passed on as bounds.

The term MIC denotes the lowest concentration found to suppress growth. With `COc1c(N2CCNC(C)C2)c(F)cc2c(=O)c(C(=O)O)cn(C3CC3)c12` (stereo not given) [GATIFLOXACIN], the MIC in assay [1] (LPM pH 5.8), in assay [1] (MHB) and in assay [1] (MOPS glucose minimal medium) was not above 0.78 µM throughout. Moreover, in assay [2], the “intracellular MIC” value was not above 0.78 µM. In the assay on RAW264.7, the cytotoxicity was found to be 21.7%.

For `O=S(=O)(O)NC1CCCCC1` [CYCLAMIC ACID], the MIC in assay [1] (LPM pH 5.8), in assay [1] (MHB) and in assay [1] (MOPS glucose minimal medium) was more than 50 µM in each case. For the same compound, the “intracellular MIC” value in assay [2] was more than 50 µM. This compound also had a cytotoxicity in the assay with RAW264.7 of 7.97%.

As for `C[C@H]1COc2c(C3(N)CC3)c(F)cc3c(=O)c(C(=O)O)cn1c23` [PAZUFLOXACIN MESYLATE], the minimal inhibitory concentration (MIC) in assay [1] (LPM pH 5.8), in assay [1] (MHB) and in assay [1] (MOPS glucose minimal medium) was not above 0.78 µM each time. Moreover, the “intracellular MIC” value in assay [2] is not above 0.78 µM. This compound registered a cytotoxicity in the assay with RAW264.7 of 12.2%.

With `C=C1c2c(Cl)ccc(O)c2C(=O)C2=C(O)[C@]3(O)C(=O)C(C(N)=O)=C(O)[C@@H](N(C)C)[C@@H]3[C@@H](O)[C@H]12.O=C(O)c1cc(S(=O)(=O)O)ccc1O` [MECLOCYCLINE SULFOSALICYLATE], the minimal inhibitory concentration (MIC) in assay [1] (LPM pH 5.8), in assay [1] (MHB) and in assay [1] (MOPS glucose minimal medium) was not above 0.78 µM each time. Besides, the “intracellular MIC” value in assay [2] came out at 3.13 µM. In the assay on RAW264.7, this compound came in with a cytotoxicity of 16.3%.

Take `CC1COc2c(N3CCN(C)CC3)c(F)cc3c(=O)c(C(=O)O)cn1c23` (stereo not given) [OFLOXACIN]: the MIC in assay [1] (LPM pH 5.8), in assay [1] (MHB) and in assay [1] (MOPS glucose minimal medium) was not above 0.78 µM throughout. Further, the “intracellular MIC” value in assay [2] was 1.56 µM. The cytotoxicity in the assay on RAW264.7 amounted to 6.6%.

As to `C[C@@H]1CN(c2c(F)c(F)c3c(=O)c(C(=O)O)cn(C4CC4)c3c2F)C[C@H](C)N1` [ORBIFLOXACIN], the figures for the MIC in assay [1] (LPM pH 5.8), in assay [1] (MHB) and in assay [1] (MOPS glucose minimal medium) were 3.13 µM (≈ 1.24 µg/mL), 3.13 µM (≈ 1.24 µg/mL) and not above 0.78 µM, respectively. Moreover, in assay [2], the “intracellular MIC” value was not above 0.78 µM. In the assay with RAW264.7, this compound showed a cytotoxicity of 15.3%.

For the compound `CO[C@H]1/C=C/O[C@@]2(C)Oc3c(C)c(O)c4c(O)c(c(/C=N/N5CCN(C)CC5)c(O)c4c3C2=O)NC(=O)/C(C)=C\C=C\[C@H](C)[C@H](O)[C@@H](C)[C@@H](O)[C@@H](C)[C@H](OC(C)=O)[C@@H]1C` [RIFAMPIN], the values for the minimal inhibitory concentration (MIC) in assay [1] (LPM pH 5.8), in assay [1] (MHB) and in assay [1] (MOPS glucose minimal medium) were 3.13 µM (≈ 2.58 µg/mL), 50 µM (≈ 41.1 µg/mL) and 25 µM (≈ 20.6 µg/mL), respectively. Further, in assay [2], the “intracellular MIC” value is not above 0.78 µM. Besides, the cytotoxicity in the assay with RAW264.7 was 8.58%.

As for `CO/N=C(\C(=O)N[C@@H]1C(=O)N2C(C(=O)OCOC(=O)C(C)(C)C)=C(/C=C\c3scnc3C)CS[C@H]12)c1csc(N)n1` [CEFDITORIN PIVOXIL], the MIC turned out to be 50 µM (≈ 31 µg/mL) in assay [1] (LPM pH 5.8), 50 µM (≈ 31 µg/mL) in assay [1] (MHB) and 25 µM (≈ 15.5 µg/mL) in assay [1] (MOPS glucose minimal medium). In addition, in assay [2], the “intracellular MIC” value was more than 50 µM. This compound showed a cytotoxicity in the assay on RAW264.7 of 21%.

Regarding `CCCCC(CC)CN1CN(CC(CC)CCCC)CC(C)(N)C1` (stereo not given) [HEXETIDINE], the MIC in assay [1] (LPM pH 5.8) was 25 µM (≈ 8.49 µg/mL); in assay [1] (MHB) it was more than 50 µM; in assay [1] (MOPS glucose minimal medium) it was more than 50 µM. For the same compound, in assay [2], the “intracellular MIC” value is more than 50 µM. Further, in the assay on RAW264.7, the cytotoxicity was 49.5%.

Consider `O=C(O)CCC(=O)OC[C@@H](NC(=O)C(Cl)Cl)[C@H](O)c1ccc([N+](=O)[O-])cc1` [CHLORAMPHENICOL SODIUM SUCCINATE], for which the MIC worked out at 6.25 µM in assay [1] (LPM pH 5.8), 25 µM in assay [1] (MHB) and 12.5 µM in assay [1] (MOPS glucose minimal medium). In assay [2], the “intracellular MIC” value was not above 0.78 µM. In the assay with RAW264.7, this compound yielded a cytotoxicity of 8.03%.

As to `CCn1cc(C(=O)O)c(=O)c2ccc(C)nc21` [NALIDIXIC ACID], the figures for the MIC in assay [1] (LPM pH 5.8), in assay [1] (MHB) and in assay [1] (MOPS glucose minimal medium) were not above 0.78 µM, 25 µM (≈ 5.81 µg/mL) and 6.25 µM (≈ 1.45 µg/mL), respectively. For the same compound, the “intracellular MIC” value in assay [2] was more than 50 µM. In the assay with RAW264.7, this compound gave a cytotoxicity of 16%.

For the compound `CN(C)[C@@H]1C(O)=C(C(N)=O)C(=O)[C@@]2(O)C(O)=C3C(=O)c4c(O)cccc4[C@@](C)(O)[C@H]3C[C@@H]12` [TETRACYCLINE HYDROCHLORIDE], the MIC in assay [1] (LPM pH 5.8) is not above 0.78 µM; in assay [1] (MHB), 12.5 µM; in assay [1] (MOPS glucose minimal medium) it was 3.13 µM. Moreover, in assay [2], the “intracellular MIC” value was determined as 1.56 µM. For the same compound, the cytotoxicity with RAW264.7 stood at 7.01%.

As to `CN(C)CC(c1ccc(O)cc1)C1(O)CCCCC1` (stereo not given) [DESVENLAFAXINE SUCCINATE], the MIC in assay [1] (LPM pH 5.8), in assay [1] (MHB) and in assay [1] (MOPS glucose minimal medium) was more than 50 µM throughout. Moreover, in assay [2], the “intracellular MIC” value is 25 µM. Further, the cytotoxicity with RAW264.7 was 8.25%.

For the compound `CC(=O)OC1CN2CCC1CC2` (stereo not given) [ACECLIDINE], the minimum inhibitory concentration (MIC) in assay [1] (LPM pH 5.8), in assay [1] (MHB) and in assay [1] (MOPS glucose minimal medium) was more than 50 µM each time. Besides, the “intracellular MIC” value in assay [2] is more than 50 µM. This compound registered a cytotoxicity in the assay with RAW264.7 of 20.3%.

Consider `CCCCC(=O)N(Cc1ccc(-c2ccccc2-c2nnn[nH]2)cc1)[C@H](C(=O)O)C(C)C` [VALSARTAN], for which the minimum inhibitory concentration (MIC) in assay [1] (LPM pH 5.8), in assay [1] (MHB) and in assay [1] (MOPS glucose minimal medium) was more than 50 µM each time. Further, in assay [2], the “intracellular MIC” value was more than 50 µM. Also, the cytotoxicity in the assay on RAW264.7 was 6.04%.

Regarding `CCCCCCNC(=O)n1cc(F)c(=O)[nH]c1=O` [CARMOFUR], the minimum inhibitory concentration (MIC) in assay [1] (LPM pH 5.8) was not above 0.78 µM; in assay [1] (MHB), more than 50 µM; in assay [1] (MOPS glucose minimal medium), not above 0.78 µM. The “intracellular MIC” value in assay [2] is 1.56 µM. For the same compound, the cytotoxicity in the assay with RAW264.7 stood at 13.7%.

For `CCCCCN(C)CCC(O)(P(=O)(O)O)P(=O)(O)O` [IBANDRONATE SODIUM], the MIC in assay [1] (LPM pH 5.8), in assay [1] (MHB) and in assay [1] (MOPS glucose minimal medium) was more than 50 µM in each case. The “intracellular MIC” value in assay [2] is 1.56 µM. This compound also yielded a cytotoxicity in the assay on RAW264.7 of 6.92%.

Regarding `CO[C@]12C[C@@H](COC(=O)c3cncc(Br)c3)CN(C)[C@@H]1Cc1cn(C)c3cccc2c13` [NICERGOLINE], the MIC in assay [1] (LPM pH 5.8), in assay [1] (MHB) and in assay [1] (MOPS glucose minimal medium) was more than 50 µM in each case. Besides, the “intracellular MIC” value in assay [2] was 25 µM. Besides, the cytotoxicity in the assay with RAW264.7 was found to be 20.4%.

Turning to `C[C@@H](O)[C@H]1C(=O)N2C(C(=O)O)=C(S[C@@H]3CN[C@H](C(=O)N(C)C)C3)[C@H](C)[C@H]12` [MEROPENEM], the figures for the MIC in assay [1] (LPM pH 5.8), in assay [1] (MHB) and in assay [1] (MOPS glucose minimal medium) were 3.13 µM (≈ 1.2 µg/mL), 12.5 µM (≈ 4.79 µg/mL) and 6.25 µM (≈ 2.4 µg/mL), respectively. Further, the “intracellular MIC” value in assay [2] stood at 3.13 µM. Further, in the assay with RAW264.7, the cytotoxicity was found to be 14.9%.

As for `C[C@@H]1CN(c2c(F)c(N)c3c(=O)c(C(=O)O)cn(C4CC4)c3c2F)C[C@H](C)N1` [SPARFLOXACIN], the minimal inhibitory concentration (MIC) in assay [1] (LPM pH 5.8), in assay [1] (MHB) and in assay [1] (MOPS glucose minimal medium) was not above 0.78 µM throughout. In assay [2], the “intracellular MIC” value was not above 0.78 µM. Also, the cytotoxicity in the assay on RAW264.7 was 16.6%.

Consider `CO[C@H]1/C=C/O[C@@]2(C)Oc3c(C)c(O)c4c(O)c(c5c(nc6cc(C)ccn65)c4c3C2=O)NC(=O)/C(C)=C\C=C\[C@H](C)[C@H](O)[C@@H](C)[C@@H](O)[C@@H](C)[C@H](OC(C)=O)[C@@H]1C` [RIFAXIMIN], for which the minimum inhibitory concentration (MIC) in assay [1] (LPM pH 5.8) was determined as 6.25 µM (≈ 4.91 µg/mL); in assay [1] (MHB), 12.5 µM (≈ 9.82 µg/mL); in assay [1] (MOPS glucose minimal medium), 25 µM (≈ 19.6 µg/mL). Further, the “intracellular MIC” value in assay [2] came to 12.5 µM. For the same compound, in the assay on RAW264.7, the cytotoxicity came to 6.48%.

For the compound `Nc1ccncc1` [FAMPRIDINE], the MIC in assay [1] (LPM pH 5.8), in assay [1] (MHB) and in assay [1] (MOPS glucose minimal medium) was more than 50 µM each time. Besides, in assay [2], the “intracellular MIC” value was more than 50 µM. Further, the cytotoxicity in the assay with RAW264.7 is 20.4%.

For `CCOC(=O)Nc1nc2ccccc2[nH]1` [LOBENDAZOLE], the minimal inhibitory concentration (MIC) in assay [1] (LPM pH 5.8) is 50 µM (≈ 10.3 µg/mL); in assay [1] (MHB), more than 50 µM; in assay [1] (MOPS glucose minimal medium) it was more than 50 µM. Further, the “intracellular MIC” value in assay [2] is more than 50 µM. For the same compound, the cytotoxicity with RAW264.7 is 21.1%.
